According to the supplement of paper PMC11061612:

Experiments:
Paclitaxel = compound: CC(=O)O[C@H]1C(=O)[C@@]2(C)[C@H]([C@H](OC(=O)c3ccccc3)[C@]3(O)C[C@H](OC(=O)[C@H](O)[C@@H](NC(=O)c4ccccc4)c4ccccc4)C(C)=C1C3(C)C)[C@]1(OC(C)=O)CO[C@@H]1C[C@@H]2O [Paclitaxel]; conditions: max 3 µM
Summary of the method: (§1)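 Cancer cell lines were plated in 1536-well plates in 7.5 μl of DMEM/F12 or RPMI with 10% FBS and kept 24 hours at 37°C and 5% CO2 before 72 hours of dosing, with final DMSO typically 0.2%. CellTiter-Glo 2.0 luminescence measured viability, scaled between blank-well and DMSO-well means. Dose responses were fitted to a two-parameter logistic curve with a non-linear mixed effects model. This fit gives the single-agent IC50.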

Savolitinib = compound: C[C@@H](c1ccc2nccn2c1)n1nnc2ncc(-c3cnn(C)c3)nc21 [Savolitinib]; conditions: max 1 µM
Summary of the method: as §1

Etoposide = compound: COc1cc([C@@H]2c3cc4c(cc3[C@@H](O[C@@H]3O[C@@H]5CO[C@@H](C)O[C@H]5[C@H](O)[C@H]3O)[C@H]3COC(=O)[C@H]23)OCO4)cc(OC)c1O [Etoposide]; conditions: max 10 µM
Summary of the method: as §1

AZD7648 = compound: Cc1cc2ncnn2cc1Nc1ncc2c(n1)n(C1CCOCC1)c(=O)n2C [AZD7648]; conditions: max 10 µM
Summary of the method: as §1

AZD1390 = compound: CC(C)n1c(=O)n(C)c2cnc3cc(F)c(-c4ccc(OCCCN5CCCCC5)nc4)cc3c21 [AZD1390]; conditions: max 0.3 µM
Summary of the method: as §1

SRA737 = compound: N#Cc1cnc(Nc2cc(NC[C@H]3CNCCO3)c(C(F)(F)F)cn2)cn1 [SRA737]; conditions: max 10 µM
Summary of the method: as §1

AZD5153 = compound: COc1nnc2ccc(N3CCC(c4ccc(OCCN5CCN(C)C(=O)[C@H]5C)cc4)CC3)nn12 [AZD5153]; conditions: max 1 µM
Summary of the method: as §1

AZD4320 = compound: CN(CC[C@H](CSC1=CC=CC=C1)NC2=C(C=C(C=C2)S(=O)(=O)NC(=O)C3=CC=C(C=C3)N4CCC(CC4)[C@H](C5=CC=CC=C5C6=CC=C(C=C6)Cl)O)S(=O)(=O)C(F)(F)F)CCO [AZD4320]; conditions: max 1 µM
Summary of the method: as §1

Venetoclax = compound: CC1(C)CCC(CN2CCN(c3ccc(C(=O)NS(=O)(=O)c4ccc(NCC5CCOCC5)c([N+](=O)[O-])c4)c(Oc4cnc5[nH]ccc5c4)c3)CC2)=C(c2ccc(Cl)cc2)C1 [Venetoclax]; conditions: max 1 µM
Summary of the method: as §1

Alisertib = compound: COc1cc(Nc2ncc3c(n2)-c2ccc(Cl)cc2C(c2c(F)cccc2OC)=NC3)ccc1C(=O)O [Alisertib]; conditions: max 10 µM
Summary of the method: as §1

Trametinib = compound: CC(=O)Nc1cccc(-n2c(=O)n(C3CC3)c(=O)c3c(Nc4ccc(I)cc4F)n(C)c(=O)c(C)c32)c1 [Trametinib]; conditions: max 1 µM
Summary of the method: as §1

Olaparib = compound: O=C(c1cc(Cc2n[nH]c(=O)c3ccccc23)ccc1F)N1CCN(C(=O)C2CC2)CC1 [Olaparib]; conditions: max 10 µM
Summary of the method: as §1

SN-38 = compound: CCc1c2c(nc3ccc(O)cc13)-c1cc3c(c(=O)n1C2)COC(=O)[C@]3(O)CC [SN-38]; conditions: max 0.3 µM
Summary of the method: as §1

[1] = compound: O=C(Nc1ccc2[nH]nc(-c3ccncc3)c2c1)[C@@H]1CCN(CC(=O)N2CCN(c3ccc(-c4ncccn4)cc3)CC2)C1; conditions: max 5 µM
Summary of the method: as §1

Prexasertib = compound: COc1cccc(OCCCN)c1-c1cc(Nc2cnc(C#N)cn2)n[nH]1 [Prexasertib]; conditions: max 1 µM
Summary of the method: as §1

AZD8186 = compound: C[C@@H](Nc1cc(F)cc(F)c1)c1cc(C(=O)N(C)C)cc2c(=O)cc(N3CCOCC3)oc12 [AZD8186]; conditions: max 10 µM
Summary of the method: as §1

Palbociclib = compound: CC(=O)c1c(C)c2cnc(Nc3ccc(N4CCNCC4)cn3)nc2n(C2CCCC2)c1=O [Palbociclib]; conditions: max 10 µM
Summary of the method: as §1

AZD5363 = compound: C1CN(CCC1(C(=O)N[C@@H](CCO)C2=CC=C(C=C2)Cl)N)C3=NC=NC4=C3C=CN4 [AZD5363]; conditions: max 10 µM
Summary of the method: as §1

AZD0156 = compound: CN(C)CCCOc1ccc(-c2ccc3ncc4c(c3c2)n(C2CCOCC2)c(=O)n4C)cn1 [AZD0156]; conditions: max 3 µM
Summary of the method: as §1

SG3199 = compound: CC1=CN2[C@@H](C1)C=NC3=CC(=C(C=C3C2=O)OC)OCCCCCOC4=C(C=C5C(=C4)N=C[C@@H]6CC(=CN6C5=O)C)OC [SG3199]; conditions: max 0.001 µM
Summary of the method: as §1

AZD2811 = compound: CCN(CCO)CCCOc1ccc2c(Nc3cc(CC(=O)Nc4cccc(F)c4)[nH]n3)ncnc2c1 [AZD2811]; conditions: max 1 µM
Summary of the method: as §1

Lapatinib = compound: CS(=O)(=O)CCNCc1ccc(-c2ccc3ncnc(Nc4ccc(OCc5cccc(F)c5)c(Cl)c4)c3c2)o1 [Lapatinib]; conditions: max 10 µM
Summary of the method: as §1

Gemcitabine = compound: Nc1ccn([C@@H]2O[C@H](CO)[C@@H](O)C2(F)F)c(=O)n1 [Gemcitabine]; conditions: max 0.3 µM
Summary of the method: as §1

Selumetinib = compound: Cn1cnc2c(F)c(Nc3ccc(Br)cc3Cl)c(C(=O)NOCCO)cc21 [Selumetinib]; conditions: max 10 µM
Summary of the method: as §1

AZD6738 = compound: C[C@@H]1COCCN1C2=NC(=NC(=C2)C3(CC3)[S@](=N)(=O)C)C4=C5C=CNC5=NC=C4 [AZD6738]; conditions: max 10 µM
Summary of the method: as §1

Crizotinib = compound: C[C@@H](Oc1cc(-c2cnn(C3CCNCC3)c2)cnc1N)c1c(Cl)ccc(F)c1Cl [Crizotinib]; conditions: max 10 µM
Summary of the method: as §1

Dasatinib = compound: CC1=C(C(=CC=C1)Cl)NC(=O)C2=CN=C(S2)NC3=CC(=NC(=N3)C)N4CCN(CC4)CCO [Dasatinib]; conditions: max 2 µM
Summary of the method: as §1

AZD5991 = compound: Cc1c2c(nn1C)CSCc1cc(n(C)n1)CSc1cc(c3ccccc3c1)OCCCc1c(C(=O)O)n(C)c3c-2c(Cl)ccc13 [AZD5991]; conditions: max 1 µM
Summary of the method: as §1

Doxorubicin = compound: COc1cccc2c1C(=O)c1c(O)c3c(c(O)c1C2=O)C[C@@](O)(C(=O)CO)C[C@@H]3O[C@H]1C[C@H](N)[C@H](O)[C@H](C)O1 [Doxorubicin]; conditions: max 1 µM
Summary of the method: as §1

Carboplatin = compound: C1CC(C1)(C(=O)[O-])C(=O)[O-].N.N.[Pt+2] [Carboplatin]; conditions: max 10 µM
Summary of the method: as §1

Taselisib = compound: Cc1nc(-c2cn3c(n2)-c2ccc(-c4cnn(C(C)(C)C(N)=O)c4)cc2OCC3)n(C(C)C)n1 [Taselisib]; conditions: max 10 µM
Summary of the method: as §1

MK-2206 = compound: NC1(c2ccc(-c3nc4ccn5c(=O)[nH]nc5c4cc3-c3ccccc3)cc2)CCC1 [MK-2206]; conditions: max 10 µM
Summary of the method: as §1

Gefitinib = compound: COc1cc2ncnc(Nc3ccc(F)c(Cl)c3)c2cc1OCCCN1CCOCC1 [Gefitinib]; conditions: max 10 µM
Summary of the method: as §1

5-Fluorouracil = compound: O=c1[nH]cc(F)c(=O)[nH]1 [5-Fluorouracil]; conditions: max 20 µM
Summary of the method: as §1

AZD1775 = compound: C=CCn1c(=O)c2cnc(Nc3ccc(N4CCN(C)CC4)cc3)nc2n1-c1cccc(C(C)(C)O)n1 [AZD1775]; conditions: max 3 µM
Summary of the method: as §1

TGBC11TKB (Gastric Carcinoma)
IC50, cell viability 72 h (Paclitaxel): 20.4 nM
IC50, cell viability 72 h (Savolitinib): > 1000 nM
IC50, cell viability 72 h (Etoposide): > 10000 nM
IC50, cell viability 72 h (AZD7648): > 10000 nM
IC50, cell viability 72 h (AZD1390): > 300 nM
IC50, cell viability 72 h (SRA737): 1710 nM
IC50, cell viability 72 h (AZD5153): > 1000 nM
IC50, cell viability 72 h (AZD4320): > 1000 nM
IC50, cell viability 72 h (Venetoclax): > 1000 nM
IC50, cell viability 72 h (Alisertib): > 10000 nM
IC50, cell viability 72 h (Trametinib): 522 nM
IC50, cell viability 72 h (Olaparib): > 10000 nM
IC50, cell viability 72 h (SN-38): 159 nM
IC50, cell viability 72 h [1]: > 5000 nM
IC50, cell viability 72 h (Prexasertib): 11.2 nM
IC50, cell viability 72 h (AZD8186): > 10000 nM
IC50, cell viability 72 h (Palbociclib): > 10000 nM
IC50, cell viability 72 h (AZD5363): > 10000 nM
IC50, cell viability 72 h (AZD0156): > 3000 nM
IC50, cell viability 72 h (SG3199): > 1 nM
IC50, cell viability 72 h (AZD2811): > 1000 nM
IC50, cell viability 72 h (Lapatinib): > 10000 nM
IC50, cell viability 72 h (Gemcitabine): 45.4 nM
IC50, cell viability 72 h (Selumetinib): 8400 nM
IC50, cell viability 72 h (AZD6738): 2020 nM
IC50, cell viability 72 h (Crizotinib): > 10000 nM
IC50, cell viability 72 h (Dasatinib): > 2000 nM
IC50, cell viability 72 h (AZD5991): > 1000 nM
IC50, cell viability 72 h (Doxorubicin): > 1000 nM
IC50, cell viability 72 h (Carboplatin): > 10000 nM
IC50, cell viability 72 h (Taselisib): > 10000 nM
IC50, cell viability 72 h (MK-2206): > 10000 nM
IC50, cell viability 72 h (Gefitinib): > 10000 nM
IC50, cell viability 72 h (5-Fluorouracil): > 20000 nM
IC50, cell viability 72 h (AZD1775): 287 nM

VMRC-LCD (Lung Adenocarcinoma)
IC50, cell viability 72 h (Paclitaxel): 19 nM
IC50, cell viability 72 h (Savolitinib): > 1000 nM
IC50, cell viability 72 h (Etoposide): > 10000 nM
IC50, cell viability 72 h (AZD7648): > 10000 nM
IC50, cell viability 72 h (AZD1390): > 300 nM
IC50, cell viability 72 h (SRA737): > 10000 nM
IC50, cell viability 72 h (AZD5153): 802 nM
IC50, cell viability 72 h (AZD4320): > 1000 nM
IC50, cell viability 72 h (Venetoclax): > 1000 nM
IC50, cell viability 72 h (Alisertib): 668 nM
IC50, cell viability 72 h (Trametinib): > 1000 nM
IC50, cell viability 72 h (Olaparib): > 10000 nM
IC50, cell viability 72 h (SN-38): > 300 nM
IC50, cell viability 72 h [1]: > 5000 nM
IC50, cell viability 72 h (Prexasertib): 115 nM
IC50, cell viability 72 h (AZD8186): > 10000 nM
IC50, cell viability 72 h (Palbociclib): > 10000 nM
IC50, cell viability 72 h (AZD5363): > 10000 nM
IC50, cell viability 72 h (AZD0156): > 3000 nM
IC50, cell viability 72 h (SG3199): > 1 nM
IC50, cell viability 72 h (AZD2811): 745 nM
IC50, cell viability 72 h (Lapatinib): > 10000 nM
IC50, cell viability 72 h (Gemcitabine): > 300 nM
IC50, cell viability 72 h (Selumetinib): > 10000 nM
IC50, cell viability 72 h (AZD6738): > 10000 nM
IC50, cell viability 72 h (Crizotinib): 5710 nM
IC50, cell viability 72 h (Dasatinib): > 2000 nM
IC50, cell viability 72 h (AZD5991): > 1000 nM
IC50, cell viability 72 h (Doxorubicin): > 1000 nM
IC50, cell viability 72 h (Carboplatin): > 10000 nM
IC50, cell viability 72 h (Taselisib): > 10000 nM
IC50, cell viability 72 h (MK-2206): > 10000 nM
IC50, cell viability 72 h (Gefitinib): > 10000 nM
IC50, cell viability 72 h (5-Fluorouracil): > 20000 nM
IC50, cell viability 72 h (AZD1775): > 3000 nM
